Data on six molecules can be found in article PMC9994102, “A fluorescent photoaffinity probe for formyl peptide receptor 1 labelling in living cells†” (RSC Chemical Biology, 2023).

For assay [1], the system named is FPR1 (crude membrane fraction of transfected HEK293T cells). In words: gel-based competition of probe-TAMRA labelling in membrane fraction. The assay is classed as binding. Particulars: 50 nM probe-TAMRA, 30 min on ice, 2% DMSO, 365 nm 30 s, PNGaseF.
Experimental: (a) UV-dependent crosslinking analysed by gel and western blot. […] Following cell lysis, samples were separated by SDS-PAGE and analysed by in-gel fluorescence (550 nm emission) and anti-FLAG western blot. Ponceau staining was used to assess protein loading. […] Probes were used at a concentration of 10 nM. Samples were washed twice before analysis and 10,000 cells were measured per sample. […] HEK293T cells transfected with FPR1 or mock transfected were suspended, lysed by sonication and membrane fraction isolated by centrifugation. […] Proteins were deglycosylated with PNGaseF, separated by SDS-PAGE and analysed by in-gel fluorescence (550nm emission). The gel was Coomassie stained to provide evidence of equal protein loading.
(§1) Cells were incubated in a humidified atmosphere at 37 °C containing 5% CO2. HEK293T cells were cultured in Dulbecco’s Modified Eagle Medium (DMEM, Fisher) supplemented with 1% L-glutamine, 10% v/v fetal bovine serum (FBS) and 1% v/v Pen-Strep. Cells were detached using 1  trypsin in PBS.
HEK293T cells were seeded in a 6-well plate (2 × 10^5 cells/well) and incubated at 37 °C overnight. The plasmid containing FPR1 gene (0.7 µg/µL stock) and Turbofect (Fisher) were mixed with DMEM (no FBS) and incubated at room temperature for 15 min (1 µg of plasmid and 3 µL of Turbofect in 100 µL of media per well). The solution was added to the plated cells and incubated at 37 °C overnight. For mock transfection, the plasmid was omitted.
For 10 cm plate transfection for lysate preparation, the following modifications were used: 1.6×10^6 cells were seeded per plate; 8 µg plasmid and 24 µL Turbofect were mixed in 800 µL DMEM.
Transfected cells were washed with PBS and incubated in 1 mL of PBS with EDTA (per well) at 37 °C for 3 min to detach. The cells were then transferred into sterile Eppendorf tubes and centrifuged at 2000 rpm for 3 min at 4 °C to form pellets. Subsequently the cells were incubated with 1 mL of 10 nM probe in PBS at 0 °C for 30 min. […] Protein concentration was determined by the DC protein assay (Bio-Rad) using BSA to generate a standard curve. […]
For assay [2], the system named is FPR1 (FPR1-HEK293T cells). In words: flow cytometry competition of probe-TAMRA with known ligands. It counts as binding. To be noted: probe-TAMRA 10 nM. A general note: Flow cytometry measures light scatter and fluorescence of single cells or particles in a stream.
Experimental: as §1
HEK293T cells were seeded in a 6-well plate (2 × 10^5 cells/well) and incubated at 37 °C overnight. The plasmid containing FPR1 gene (0.7 µg/µL stock) and Turbofect (Fisher) were mixed with DMEM (no FBS) and incubated at room temperature for 15 min (1 µg of plasmid and 3 µL of Turbofect in 100 µL of media per well). The solution was added to the plated cells and incubated at 37 °C overnight. For mock transfection, the plasmid was omitted. […]
concentrations of 5 µM, 20 µM, 5 µM respectively) or DMSO for 30 min on ice (final DMSO concentration of 2%). […] Membranes were resuspended in 25 µL PBS, irradiated for 30 s at 365 nm, deglycosylated as described in section 2.6, and then analysed by SDS-PAGE.
Crosslinked cell lysate samples were analysed using gel-based fluorescent imaging. […] Fluorescence was measured using a BioRad ChemiDoc MP Imaging System with a Cy3 filter. […]
The target in assay [3] is T1, FPR1 (FLAG-tagged, transiently transfected HEK293T cells) (Homo sapiens, UniProt P21462).
T1 construct: host or cells: HEK293T, transient transfection with Turbofect
T1 sequence (P21462 1-350): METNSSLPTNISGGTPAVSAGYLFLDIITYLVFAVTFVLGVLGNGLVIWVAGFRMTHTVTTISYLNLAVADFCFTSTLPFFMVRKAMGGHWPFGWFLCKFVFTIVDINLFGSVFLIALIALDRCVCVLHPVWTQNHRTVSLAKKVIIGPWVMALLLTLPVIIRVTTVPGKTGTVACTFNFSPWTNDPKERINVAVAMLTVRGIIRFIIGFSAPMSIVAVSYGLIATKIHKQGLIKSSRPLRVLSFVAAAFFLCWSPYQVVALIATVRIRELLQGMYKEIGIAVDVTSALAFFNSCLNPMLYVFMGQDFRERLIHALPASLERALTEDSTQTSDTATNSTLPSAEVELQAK
In words: flow cytometry binding to FPR1-transfected HEK293T cells. To be noted: 10 nM; 10 000 cells per sample. As for the experimental part: Fig. 2 Evaluation of probe-TAMRA as a ligand for FPR1 by flow cytometry. Histograms of FPR1-transfected (+FPR1) or mock-transfected (mock) HEK293T cells incubated with Tracer-FITC (a) or probe-TAMRA (b) each at 10 nM at the indicated wavelengths. 10 000 cells measured per sample. (c) Plot of mean fluorescence intensity determined from flow cytometry analysis following incubation with increasing concentrations of probe-TAMRA with transfected (blue) or mock transfected (grey) cells. Data from 3 biological replicates; error bars represent standard error of the mean. Black curve is subtraction of background binding (grey curve) from blue curve and represents specific binding. (d) Dot plot from incubation of transfected cells with Tracer-FITC alone (cyan), probe-TAMRA alone (blue), or co-incubation of probe and tracer (red). All peptides at 10 nM. (e) Plot of percentage maximum fluorescence at 525 nm (FITC) and 585 nm (TAMRA) wavelengths from a flow cytometry competition experiment in which Tracer-FITC was held constant at a concentration of 10 nM and the concentration of probe-TAMRA increased from 0–200 nM. […]
Transfected cells were washed with PBS and incubated in 1 mL of PBS with EDTA (per well) at 37 °C for 3 min to detach. […] Protein concentration was determined by the DC protein assay (Bio-Rad) using BSA to generate a standard curve. […]

In assay [4] the target is FPR1. Also noted: method as in 4 sources, ref [17] = [17]; PMID 18312550; doi:10.1111/j.1747-0285.2008.00646.x; Wittelsberger A. Mierke D. F. Rosenblatt M. Mapping ligand-receptor interfaces: approaching the resolution limit of benzophenone-based photoaffinity scanning Chem. Biol. Drug Des. 2008 71 4 380 383 10 ||| ref [20] = [20]; PMID 472759; doi:10.1126/science.472759; Niedel J. E. Kahane I. Receptor-Mediated Internalisation of Fluorescent Chemotactic Peptide by Human Neutrophils Science 1979 205 1412 1414 10.1126/science.472759 472759 ||| ref [21] = [21]; PMID 15209517; doi:10.1021/bi035335i; Waller A. Sutton K. L. Kinzer-Ursem T. L. Absood A. Traynor J. R. Linderman J. J. Omann G. M. Receptor binding kinetics and cellular responses of six N-formyl peptide agonists in human neutrophils Bio ||| ref [30] = [30]; PMID 19006074; doi:10.1002/cyto.a.20670; Strouse J. J. Young S. M. Mitchell H. D. Ye R. D. Prossnitz E. R. Sklar L. A. Edwards B. S. A novel fluorescent cross-reactive formylpeptide receptor/formylpeptide receptor-like 1 hexapeptide ligand C. Particulars: cited from earlier work; for binding to FPR1: ref [20].

Assay [5] concerns FPR1. Particulars: ref [20]; cited from earlier work. As to the method:
Upon agonist binding, FPR1 internalises following activation of G protein subunits, resulting in receptor desensitisation.[20] […] Upon heating to 37 °C, fluorescent material was ob ...

The target of assay [6] is T2, Formyl peptide receptor 1, C-terminally FLAG-tagged (UniProt P21462 1-350).
T2 construct: Formyl peptide receptor 1 (FPR1); Glycosylated in HEK293T (diffuse band that sharpens with PNGaseF); also called FPR1; FLAG-tagged FPR1; source: HEK293T, transiently transfected; on living cells, in lysate (sonication) or in a crude membrane fraction; not shown: FLAG, C-terminal, kept
T2 sequence (looked up): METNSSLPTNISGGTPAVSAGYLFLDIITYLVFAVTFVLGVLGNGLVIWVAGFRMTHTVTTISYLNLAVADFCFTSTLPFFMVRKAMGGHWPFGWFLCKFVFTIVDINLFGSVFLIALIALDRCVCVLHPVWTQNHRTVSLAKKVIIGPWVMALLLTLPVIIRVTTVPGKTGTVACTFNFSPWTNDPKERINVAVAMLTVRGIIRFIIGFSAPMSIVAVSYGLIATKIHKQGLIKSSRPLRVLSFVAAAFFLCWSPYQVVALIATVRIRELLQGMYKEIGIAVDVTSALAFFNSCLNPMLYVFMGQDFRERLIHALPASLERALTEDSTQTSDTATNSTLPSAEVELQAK
In words: flow cytometry on cells; FPR1-transfected or mock-transfected HEK293T cells incubated with the fluorescent peptide (10 nM; probe-TAMRA titrated 0-200 nM); background of mock-transfected cells subtracted; 3 biological replicates. Particulars: one partner purified.

Square brackets hold non-standard residues; d marks the D form. * marks the point of attachment. FITC = O=C1OC2(c3ccc(O)cc3Oc3cc(O)ccc32)c2ccc(NC(=S)*)cc21; Abu(3-Me-diazirin-3-yl) = CC1(CC[C@H](N)C(=O)O)N=N1; Nle = CCCC[C@H](N)C(=O)O; For = O=C*

Regarding Boc-MLF, in assay [1] (20 μM competitor), the “inhibition of probe-TAMRA labelling” value is recorded as “incomplete inhibition”. Also, the “concentration at which competition of probe-TAMRA binding observed” value in assay [2] fell in the range of 10 to 50 µM.

Regarding “For-[Nle]LF[Nle]YK(FITC)-OH [Tracer-FITC]”, the “fluorescence shift in flow cytometry” value in assay [3] is recorded as “clear shift to a population of fluorescent cells with minimal background binding in mock-transfected cells”. Further, the equilibrium dissociation constant (Kd) at FPR1 [4] (ref [17], read-out: reported KD) was roughly 3 nM. For the same molecule, the “binding to FPR1” value in the assay with FPR1 [4] is “low nM binding to FPR1”.

Turning to fMLF, the “inhibition of probe-TAMRA labelling” value in assay [1] (5 μM competitor) is given as “incomplete inhibition”. In assay [2], the “concentration at which competition of probe-TAMRA binding observed” value was “greater than 5 μM”. For the same molecule, the “KD of tripeptide (reported, words)” value at FPR1 [4] (ref [21]) is reported as “nM range”.

Take fMLFF: the “inhibition of probe-TAMRA labelling” value in assay [1] (5 μM competitor) is “complete inhibition”. Besides, in the assay with FPR1 [4] (ref [30]), the “potency as reported” value is on record as “more potent”.

Turning to “formyl-Nle-Leu-Phe-Nle-Tyr-Lys(TAMRA)-OH [TAMRA version of the tracer]”, the “internalisation (literature)” value in the assay on FPR1 [5] was “receptor internalisation”. For the same molecule, in the assay with FPR1 [4], the “binding to FPR1” value is given as “low nM binding to FPR1”.

With For-[Abu(3-Me-diazirin-3-yl)]LF[Nle]YK(5(6)‑TAMRA)-OH [probe-TAMRA], binding in assay [6] was put at a Kd of 3.5 ± 0.9 nM.

Usually Kd stands for the concentration at which binding is half-saturated.
